Test results reported in PubChem BioAssay (NCI).
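Assay format: 96-well plates, 48-hour exposure. GI50 marks 50% less growth. The concentration for full growth arrest is given as TGI.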

Assays:
Assay in all cases: NCI tumour cell line growth inhibition, 48 h
HCT-15 colon = test system: HCT-15 colon
U251 CNS = test system: U251 CNS
SNB-75 CNS = test system: SNB-75 CNS
ACHN renal = test system: ACHN renal
SF-295 CNS = test system: SF-295 CNS
OVCAR-3 ovarian = test system: OVCAR-3 ovarian
COLO 205 colon = test system: COLO 205 colon
SR leukemia = test system: SR leukemia
SN12C renal = test system: SN12C renal
HT29 colon = test system: HT29 colon

| SMILES | GI50 (HCT-15 colon) [µM] | TGI (HCT-15 colon) [µM] | GI50 (U251 CNS) [µM] | TGI (U251 CNS) [µM] | GI50 (SNB-75 CNS) [µM] | TGI (SNB-75 CNS) [µM] | GI50 (ACHN renal) [µM] | TGI (ACHN renal) [µM] | GI50 (SF-295 CNS) [µM] | TGI (SF-295 CNS) [µM] | GI50 (OVCAR-3 ovarian) [µM] | TGI (OVCAR-3 ovarian) [µM] | GI50 (COLO 205 colon) [µM] | TGI (COLO 205 colon) [µM] | GI50 (SR leukemia) [µM] | TGI (SR leukemia) [µM] | GI50 (SN12C renal) [µM] | TGI (SN12C renal) [µM] | GI50 (HT29 colon) [µM] | TGI (HT29 colon) [µM] |
| --- | --- | --- | --- | --- | --- | --- | --- | --- | --- | --- | --- | --- | --- | --- | --- | --- | --- | --- | --- | --- |
| COc1ccc2c(c1)cn1c3ccc(O)cc3nc(N)c21 | 0.0585 | 5.99 | 0.0547 | 4.11 | 0.112 | 2.81 | 0.109 | 5.18 | 0.203 | 4 | 0.0757 | 2.39 | 0.885 | 4.68 | 0.0743 | 2.76 | 0.342 | 19.1 | 1.45 | 4.31 |
| CC1=C(C)C(=O)c2c(cc3ccccn23)C1=O |  | 29.9 |  | 27.2 |  | 43.1 |  | > 100 |  | 31.8 |  | 29.2 |  | 34.5 |  | 72.5 |  | 27.1 |  | 36.6 |
| NCCn1c(=O)[nH]c(=O)[nH]c1=S | 96.7 | > 100 | > 100 | > 100 | > 100 | > 100 | > 100 | > 100 | > 100 | > 100 | > 100 | > 100 | > 100 | > 100 | > 100 | > 100 | > 100 | > 100 | > 100 | > 100 |
| Cc1ccc(NC(=O)C(=O)C(C#N)c2ccccc2C)cc1C (configuration not stated) |  | > 62 |  | > 100 |  | > 100 |  | > 100 |  | > 100 |  | > 100 |  | > 67.3 |  | > 100 |  | > 100 |  | > 100 |
| CC1(C)C(=NNC(=O)C[N+](C)(C)C)C(C)(C)C1=NNC(=O)C[N+](C)(C)C |  | > 100 |  | > 100 |  | > 100 |  | > 100 |  | > 100 |  | > 100 |  | > 100 |  | > 100 |  | > 100 |  | > 100 |
| O=C1c2cccnc2C(=O)c2nc3cc(N4CCN(C5CC5)CC4)ccc3nc21 | 0.257 | 1.28 | 0.383 | 2.02 | 0.147 | 1.37 | 0.6 | 4.34 | 0.41 | 1.59 | 1.24 | 3.67 | 0.558 | 2.34 | 0.322 | > 20.1 | 0.519 | 1.88 | 0.658 | 4.96 |
| Cc1ccc(-c2cn3ccnc3c(-c3ccc(Cl)cc3)n2)cc1 | 1.23 | > 35.6 | 0.786 | 18.1 | 0.465 | 24.5 |  | 22.3 | 0.0268 | 2.33 | 0.0412 |  | 0.2 | > 29.3 | 0.0548 |  | 0.532 | 62.5 | 0.31 | 37.4 |
| CC1OC(O[C@@H]2OC=C(C=O)[C@@]3(O)CC[C@H](C)[C@@H]23)C(O)C(O)C1O (some centres not stated) |  | > 100 |  | > 100 |  | > 100 |  | > 100 |  | > 100 |  | > 100 |  | > 100 |  | > 100 |  | > 100 |  | > 100 |
| CCCCCCCCCCCC(=O)OCC1OC(n2cc(F)c(=O)[nH]c2=O)C(NC(=O)OCc2ccccc2)C(OC(=O)CCCCCCCCCCC)C1O (configuration not stated) |  | > 100 |  | > 100 |  | > 100 |  | > 100 |  | > 100 |  | > 100 |  | > 100 |  | > 100 |  | > 100 |  | > 100 |
| O=[N+]([O-])C1C2C=CC(C2)[C@H]1c1ccco1 (some centres not stated) |  | > 100 |  | > 100 |  | > 100 |  | > 100 |  | > 100 |  | > 100 |  | > 100 |  | > 100 |  | > 100 |  | 9.22 |
| CC[C@@H](C(=O)O)C1CC[C@H](C)C([C@@H](C)[C@H](O)[C@H](C)C(=O)[C@H](CC)C2O[C@]3(C=C[C@@H](O)[C@]4(CC[C@@](C)(C5CC[C@](O)(CC)[C@H](C)O5)O4)O3)[C@H](C)C[C@@H]2C)O1 (some centres not stated) | 0.446 | 21.8 | 0.115 | 10.2 | 0.774 | 4.18 | 0.504 | 27.5 | 0.261 | 11.1 | 0.0434 | 16.4 | 0.224 | 5.2 | 0.0411 | 14 | 0.128 | 28.7 | 0.293 | 25.7 |
| Cn1cccc1-c1cc(-c2cccs2)nc(N)c1C#N | > 100 | > 100 | > 100 | > 100 | 46 | > 100 | > 100 | > 100 | > 100 | > 100 | > 100 | > 100 | > 100 | > 100 | 5.39 | 68.2 | > 100 | > 100 | > 100 | > 100 |
| COc1ccc(/C(C#N)=C/c2ccccc2OC)cc1 | 6.25 | > 100 | 4.63 | 78.4 | 4.07 | 32.8 | 32.1 | > 100 | 29.1 | > 100 | 7.22 | > 100 | 5.96 | 32.4 | 2.95 | 15.1 | 21.1 | > 100 | 3.95 | 18.3 |
| CCCCCCCCCCC(C(=O)O)C1(C(=O)O)CCC(=O)O1 (configuration not stated) |  | > 100 |  | > 100 |  | > 100 |  | > 100 |  | > 100 |  | > 100 |  | > 100 |  | > 100 |  | > 100 |  | > 100 |
| Cn1cc(-c2ccc3occ(-c4cccc(-c5ccncc5)c4)c3n2)cn1 | 0.285 | > 100 | 0.601 | > 100 | 0.404 | 13.4 | 0.8 | > 100 | 0.809 | > 100 | 0.479 | > 100 | 0.546 | > 100 | 0.23 | > 100 | 1.32 | > 100 | 0.356 | > 100 |
